A short description of assay [1]: Examination 7: body weight at 14 days old after GSSG feed until 3, 7 or 14 days old. Type of assay: in vivo, broiler chicks. The following applies: n = 12. The protocol: In each group, 6 males and 6 females were tested. […] The chicks were raised until they became 14 days old, and then, their body weights were measured. The feed composition (ME3,100 kcal/kg, CP21) free of GSSG used in Examination 1 was used for the control group. In the control group the chicks were raised until they became 14 days old and their body weights were measured. In the test groups 1 to 3, a feed composition used as an initial-phase feed composition, for which the level of GSSG to be added was set to 0.05% by mass, is a composition prepared by adding GSSG at 0.05% by mass to a composition (ME3,100 kcal/kg, CP21) containing corn, soybean meal, corn gluten meal, fat and oil, calcium carbonate (powder), tricalcium phosphate, dietary salt, DL-methionine, L-lysine chloride, choline chloride, and vitamins/minerals in accordance with the NRC requirements. […] An ammonium salt was used as GSSG. The GSSG contained 95.6% by mass of oxidized glutathione, and the content of reduced glutathione mixed therein was 0.1% by mass or less.

Assay [2] concerns myostatin. Put plainly: Examination 3: myostatin mRNA expression in skeletal muscle cells in differentiation medium. Conditions: 100 μM GSSG in differentiation medium; cells recovered 0, 12, 24 h; FIG. 2B, n=6. The class given is cell-based, broiler chicks (Ross 308). The source says:
FIGS. 2A to 2D illustrate graphs showing the expression levels of genes related to skeletal muscle cell differentiation upon the addition of GSSG during the skeletal muscle cell differentiation period in Examination 3 (n=6). […] A relative value of the expression level of each factor is expressed as an average±standard deviation of values obtained by dividing the expression levels of each factor by the expression level of RPS9. Each different symbol denotes a significant difference in the […] multiple comparison test (P<0.05). Oxidized glutathione (GSSG) was added to a differentiation-promoting culture medium system of skeletal muscle cells collected from newly hatched broiler chicks (Ross 308, Ross Breeders Ltd.) (under culture conditions simulating the state of skeletal muscle cells of neonatal chicks), phosphorylation of signal factors was analyzed by Western blot, and the differentiation inhibition mechanism was investigated. Expression levels of MyoD, myostatin, IGF-I, and Pax7 as genes involved in myogenesis were determined. Pax7 is a muscle satellite cell marker. […] The expression level of Pax7 was determined by the method described in Examination 1 except that the primer set used herein was a primer set listed in the table below. […] The cells were recovered 0, 12, and 24 hours later, and the expression levels of genes involved in myogenesis were determined. […]

Assay [3] has as its system myostatin. The assay can be described thus: Examination 1: myostatin gene expression in superficial pectoral muscle (real-time PCR, relative to RPS9). The class given is in vivo, broiler chicks of the Chunky breed (Ross 308). The following applies: 3 days old, GSSG addition group (0.01% or 0.1% feed), FIG. 1C, n=6. An excerpt:
FIGS. 1A to 1D illustrate graphs showing the expression of genes related to skeletal muscle cell differentiation in superficial pectoral muscles upon administration of each feed composition in Examination 1 (n=6). […] A relative value of the expression level of each factor is expressed as an average±standard deviation of values obtained by dividing the expression levels of each factor by the expression level of RPS9. Each different symbol denotes a significant difference in the […] multiple comparison test (P<0.05). Newly hatched broiler chicks of the Chunky breed (Ross 308, Ross Breeders Ltd.) were tested. […] Real-time PCR was performed by adding cDNA, a primer set, and other necessary reagents to wells of a 96-well PCR plate, preheating the plate using a thermal cycler at 95° C. for 3 minutes, followed by 35 cycles of steps of denaturation, annealing, and elongation in a repetitive manner, and measurement of […] after the elongation step for each cycle. The expression level of each gene was designated as a relative value obtained by dividing the determined amount of an amplification product of IGF-I, myostatin, MyoD, or myogenin by the amount of an amplification product of RPS9. […] The amount of GSSG used herein was determined in terms of the amount of free oxidized glutathione. […]

oxidized glutathione [GSSG]: the 14-day-old weight is recorded as 393 ± 17 g in assay [1] (0.05% by mass GSSG feed until 3 days old), 391 ± 24 g in assay [1] (0.05% by mass GSSG feed until 7 days old) and 351 ± 47 g in assay [1] (0.05% by mass GSSG feed until 14 days old). Besides, the “mRNA expression level of myostatin vs control” value with myostatin [2] was “significant decrease”. For the same substance, the “myostatin expression level vs control group” value in the assay on myostatin [3] was “significant decreases”.
